Assay results published in US20060167057A1, “Compounds for the treatment of CNS and amyloid associated diseases” (priority 2004, published 2006).

Target: T1, L1 transport system (large neutral amino acid carrier, L1-system carrier) (Rattus norvegicus, UniProt Q63016)
T1 construct: functionality of their endogenous transporters such as the L1-system carrier; endogenous in cells; host or cells: rat primary cerebrovascular (brain microcapillary) endothelial cells, RBEC
Assay: Competitive binding assay to the brain L1 transport system (L-[U-14C]phenylalanine on rat primary cerebrovascular endothelial cells)
Details: for Status of Binding: compounds of Example 4, 10^−6, 10^−5 and 10^−4, Δ versus phenylalanine
Method: Compound samples in PBS (without Ca^+2, Mg^+2)-glucose 30 mM-HEPES 10 mM—DMSO 1% as prepared in Example 1 were thawed and left for at least 30 minutes at 20-23° C. before preparation of the following sub-dilutions for the competitive binding assay: • 200 μL of the stock solution were added to 800 μL PBS (without Ca^+2, Mg^+2)-Glucose-HEPES-1% DMSO (PBSD-1) [diluted 1:5 for a final 1:5 dilution] • 100 μL (1/5 dilution above) were added to 900 μL PBSD-1 [diluted 1:10 for a final 1:50 dilution] • 100 μL (1/50 dilution above) were added to 900 μL PBSD-1 [diluted 1:10 for a final 1:500 dilution]
These sub-dilutions were used immediately or stored overnight at 4° C. before the competitive binding assay. A volume of 45 μL of each of the compound dilutions (1:5, 1:50, 1:500) in PBSD-1 was added to the appropriate wells in the dilution plate.
Brains from sixty 24-day-old rats were dissected individually on a sterile lint moistened with ice cold Hanks' balanced salt solution (Gibco BRL, Grand Island, N.Y.) containing 10 mM HEPES (medium 1) supplemented with 0.1% BSA. Cerebellum, striatum, optic nerves, and brain stem (white matter) were removed. After a mid-sagittal section of the brain, the meninges and leptomeningeal debris were removed by rolling a sterile dry cotton swab on the cortices. (Ichikawa N, Naora K, Hirano H, Hashimoto M, Masumura S, and Iwamoto K (1996). Isolation and primary culture of rat cerebral microvascular endothelial cells for studying drug transport in vitro. J Pharmacol Toxicol Meth 36: 45-52.). Clean cortices were minced in pieces of ≈2 mm^3 in 15 mL of ice-cold medium 1-0.1% BSA. The preparation was divided into 4 sterile pre-weighed tubes and centrifuged at 330× g at 20-25° C. for 5 min. Tubes were weighed and pre-warmed (37° C.) and medium 1 with 0.5% BSA containing 0.3% collagenase and 10 μg/mL DNAse 1 (Roche, Laval, Quebec, Canada) were added to each tube (1 mL/g of tissue).
The brain-collagenase mixture was vigorously agitated in a water bath at 37° C. for 90 min. Fifteen min before the end of the digestion, the tissue was homogenized using a 10-mL pipette until a creamy mixture was obtained (≈20 aspirations). Cells were washed by adding medium 1 with 0.1% BSA to the homogenate (26 mL/tube) and centrifuged at 100× g at 20-25° C. for 7 min. This washing step was repeated 3 more times, once for 5 min and twice for 3 min. Each pellet was re-suspended in 25 mL of a 15% dextran solution prepared in medium 1 with 0.1% BSA and centrifuged at 3200× g at 4° C. for 25 min to isolate vessels from neural tissue and dextran layers. Vascular pellets were re-suspended in 5 mL Ca^++—Mg^++-free-medium 1 with 0.1% BSA (medium 2) at 20-25° C. and transferred in a 50-mL tube. Remaining vessels were collected by rinsing the tubes and pooling the rinsing suspension. (Rupnick M A, Carey A, and Williams S K (1988). Phenotypic diversity in cultured cerebral microvascular endothelial cells in vitro. Cell Develop Biol 24: 435-444.)
The vascular preparation was filtered and rinsed (20 mL of medium 2) through a sterile 355-μm mesh. The 355-μm filtrate was sequentially filtered twice (20 mL of medium 2) through sterile 112-μm meshes and rinsed (Stanimirovic D B, Wong J, Ball R, and Durkin J P (1995). Free radical-induced endothelial membrane dysfunction at the site of the blood-brain barrier: relationship between lipid peroxidation, Na,K-ATPase activity, and ^51Cr release. Neurochem Res 20:1417-1427.) and the latter filtrate was filtered and rinsed through a sterile 20-μm mesh. A final step of filtration and rinse was repeated through a double layer of 20-μm meshes. All 20-μm meshes, which retained the microcapillaries, were then transferred into a 50-mL tube containing 20 mL of a 0.1% collagenase/dispase (Roche) solution in medium 2 supplemented with 10 μg/mL DNAse 1 and 0.147 μg/mL tosyl-lysine-chloromethyl-ketone (Sigma Chemical Co., Oakville, Ontario, Canada) (medium 3).

T1 sequence (Q63016 whole entry): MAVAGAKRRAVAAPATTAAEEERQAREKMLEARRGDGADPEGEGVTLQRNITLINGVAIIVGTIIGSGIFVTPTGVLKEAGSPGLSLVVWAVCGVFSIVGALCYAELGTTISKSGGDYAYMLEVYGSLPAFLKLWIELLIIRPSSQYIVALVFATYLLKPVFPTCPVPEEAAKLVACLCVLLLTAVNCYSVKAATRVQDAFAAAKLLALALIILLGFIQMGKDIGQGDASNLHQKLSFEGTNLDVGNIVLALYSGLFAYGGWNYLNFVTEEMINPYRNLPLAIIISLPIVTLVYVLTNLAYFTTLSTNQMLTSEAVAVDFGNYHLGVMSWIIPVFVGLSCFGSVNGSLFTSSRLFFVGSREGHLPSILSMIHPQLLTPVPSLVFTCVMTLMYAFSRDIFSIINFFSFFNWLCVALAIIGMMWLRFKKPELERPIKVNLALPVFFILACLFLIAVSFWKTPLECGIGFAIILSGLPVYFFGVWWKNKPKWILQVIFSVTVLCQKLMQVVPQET
T1 sequence (Q794F9 whole entry partner): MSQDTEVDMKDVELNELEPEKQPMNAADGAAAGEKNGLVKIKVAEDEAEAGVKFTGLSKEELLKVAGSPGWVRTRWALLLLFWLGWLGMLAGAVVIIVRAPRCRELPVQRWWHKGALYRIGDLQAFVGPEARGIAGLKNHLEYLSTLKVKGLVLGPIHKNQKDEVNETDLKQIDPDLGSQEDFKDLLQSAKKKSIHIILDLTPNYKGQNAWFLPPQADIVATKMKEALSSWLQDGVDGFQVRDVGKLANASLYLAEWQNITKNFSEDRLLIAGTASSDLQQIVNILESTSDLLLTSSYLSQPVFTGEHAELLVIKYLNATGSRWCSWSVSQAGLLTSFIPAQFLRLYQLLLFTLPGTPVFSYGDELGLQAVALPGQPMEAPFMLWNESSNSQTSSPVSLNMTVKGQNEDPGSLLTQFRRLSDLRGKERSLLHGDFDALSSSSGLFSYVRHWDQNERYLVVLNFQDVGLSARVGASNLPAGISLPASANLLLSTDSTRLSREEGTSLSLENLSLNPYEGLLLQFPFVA

In the case of `NC(=O)C(N)Cc1cccc(CSc2ncnc3[nH]ncc23)n1` (centres unmarked) [Compound 34], the “Comparison with the Binding of Phenylalanine” value (from here on “Comparison with the Binding”) (10^−4 M) is reported as 0 (X < 0 Rank 0), the “Comparison with the Binding” value (10^−5 M) is reported as 0 (X < 0 Rank 0) and the “Comparison with the Binding” value (10^−6 M) is reported as 1 (0 < X < 10 Rank 1).

`NC(Cc1ccc(-c2ccc(CSc3ncccn3)cc2)cc1)C(=O)O` (centres unmarked) [Compound 95] was tested, and the “Comparison with the Binding” value (10^−4 M) was 2 (10 < X < 20 Rank 2), the “Comparison with the Binding” value (10^−5 M) was 3 (X > 20 Rank 3) and the “Comparison with the Binding” value (10^−6 M) was 2 (10 < X < 20 Rank 2).

For `N[C@@H](Cc1cccc(CSc2nnc(-c3ccncc3)o2)c1)C(=O)O` [drawing 484], the “Status of Binding” value was 2 (2: 10% ≧ Δ ≧ −10% similar binding affinity to phenylalanine).

With `NC(Cc1cccc(CSc2nc3cc([N+](=O)[O-])ccc3[nH]2)c1)C(=O)O` (centres unmarked) [Compound 79] the “Comparison with the Binding” value (10^−4 M) was 2 (10 < X < 20 Rank 2), the “Comparison with the Binding” value (10^−5 M) was 3 (X > 20 Rank 3) and the “Comparison with the Binding” value (10^−6 M) was 0 (X < 0 Rank 0).

With `NC(Cc1cccc(CSc2nnc[nH]2)n1)C(=O)O` (centres unmarked) [Compound 35] the “Comparison with the Binding” value (10^−4 M) was 0 (X < 0 Rank 0), the “Comparison with the Binding” value (10^−5 M) was 0 (X < 0 Rank 0) and the “Comparison with the Binding” value (10^−6 M) was 3 (X > 20 Rank 3).

In the case of `NC(=O)C(N)Cc1cccc(CSc2nc3ccccc3o2)n1` (centres unmarked) [Compound 31], the “Comparison with the Binding” value (10^−4 M) is reported as 0 (X < 0 Rank 0), the “Comparison with the Binding” value (10^−5 M) is reported as 0 (X < 0 Rank 0) and the “Comparison with the Binding” value (10^−6 M) is reported as 2 (10 < X < 20 Rank 2).

In the case of `NC(Cc1ccc(-c2ccc(CSc3ccc4ccccc4n3)cc2)cc1)C(=O)O` (centres unmarked) [Compound 159], the “Comparison with the Binding” value (10^−4 M) is reported as 0 (X < 0 Rank 0), the “Comparison with the Binding” value (10^−5 M) is reported as 0 (X < 0 Rank 0) and the “Comparison with the Binding” value (10^−6 M) is reported as 1 (0 < X < 10 Rank 1).

With `Cc1nnc(SCc2cccc(CC(N)C(=O)O)n2)s1` (centres unmarked) [Compound 96] the “Comparison with the Binding” value (10^−4 M) was 0 (X < 0 Rank 0), the “Comparison with the Binding” value (10^−5 M) was 1 (0 < X < 10 Rank 1) and the “Comparison with the Binding” value (10^−6 M) was 1 (0 < X < 10 Rank 1).

In the case of `NC(=O)C(N)Cc1cccc(CSc2cncc3c(C(F)(F)F)cccc23)n1` (centres unmarked) [Compound 25], the “Comparison with the Binding” value (10^−4 M) is reported as 0 (X < 0 Rank 0), the “Comparison with the Binding” value (10^−5 M) is reported as 1 (0 < X < 10 Rank 1) and the “Comparison with the Binding” value (10^−6 M) is reported as 0 (X < 0 Rank 0).

For `NC(Cc1cccc(-c2cccc(Sc3nc(-c4ccccc4)c(-c4ccccc4)[nH]3)c2)c1)C(=O)O` (centres unmarked) [Compound 74], the “Comparison with the Binding” value (10^−4 M) was 0 (X < 0 Rank 0), the “Comparison with the Binding” value (10^−5 M) was 1 (0 < X < 10 Rank 1) and the “Comparison with the Binding” value (10^−6 M) was 1 (0 < X < 10 Rank 1).

In the case of `N[C@@H](Cc1cccc(CSc2nccc(O)n2)c1)C(=O)O` [drawing 474], the “Status of Binding” value is reported as 1 (1: −10 > Δ > −50%, lower binding affinity than phenylalanine).

With `Cn1cnnc1SCc1cccc(CC(N)C(=O)O)n1` (centres unmarked) [Compound 156] the “Comparison with the Binding” value (10^−4 M) was 1 (0 < X < 10 Rank 1), the “Comparison with the Binding” value (10^−5 M) was 1 (0 < X < 10 Rank 1) and the “Comparison with the Binding” value (10^−6 M) was 2 (10 < X < 20 Rank 2).

With `NC(Cc1ccc(-c2ccc(CN3CCN(c4ncccn4)CC3)cc2)cc1)C(=O)O` (centres unmarked) [Compound 99] the “Comparison with the Binding” value (10^−4 M) was 0 (X < 0 Rank 0), the “Comparison with the Binding” value (10^−5 M) was 0 (X < 0 Rank 0) and the “Comparison with the Binding” value (10^−6 M) was 1 (0 < X < 10 Rank 1).

In the case of `N#CC1(c2ccccc2)CCN(Cc2cccc(CC(N)C(=O)O)c2)CC1` (centres unmarked) [Compound 102], the “Comparison with the Binding” value (10^−4 M) is reported as 1 (0 < X < 10 Rank 1), the “Comparison with the Binding” value (10^−5 M) is reported as 1 (0 < X < 10 Rank 1) and the “Comparison with the Binding” value (10^−6 M) is reported as 0 (X < 0 Rank 0).

For `NC(Cc1cccc(CSc2ccnc3cc(C(F)(F)F)ccc23)c1)C(=O)O` (centres unmarked) [Compound 70], the “Comparison with the Binding” value (10^−4 M) was 0 (X < 0 Rank 0), the “Comparison with the Binding” value (10^−5 M) was 1 (0 < X < 10 Rank 1) and the “Comparison with the Binding” value (10^−6 M) was 0 (X < 0 Rank 0).

For `Cc1ccnc(Sc2cccc(-c3cccc(CC(N)C(=O)O)c3)c2)n1` (centres unmarked) [Compound 136], the “Comparison with the Binding” value (10^−4 M) was 0 (X < 0 Rank 0), the “Comparison with the Binding” value (10^−5 M) was 0 (X < 0 Rank 0) and the “Comparison with the Binding” value (10^−6 M) was 3 (X > 20 Rank 3).

`N[C@@H](Cc1cccc(CS(=O)(=O)c2ncc[nH]2)c1)C(=O)O` [drawing 483] was tested, and the “Status of Binding” value was 1 (1: −10 > Δ > −50%, lower binding affinity than phenylalanine).

With `NC(Cc1ccc(-c2ccc(CSc3ncccc3C(=O)O)cc2)cc1)C(=O)O` (centres unmarked) [Compound 93] the “Comparison with the Binding” value (10^−4 M) was 0 (X < 0 Rank 0), the “Comparison with the Binding” value (10^−5 M) was 0 (X < 0 Rank 0) and the “Comparison with the Binding” value (10^−6 M) was 1 (0 < X < 10 Rank 1).

With `Cc1ccnc(SCc2cccc(CC(N)C(=O)O)n2)n1` (centres unmarked) [Compound 121] the “Comparison with the Binding” value (10^−4 M) was 0 (X < 0 Rank 0), the “Comparison with the Binding” value (10^−5 M) was 0 (X < 0 Rank 0) and the “Comparison with the Binding” value (10^−6 M) was 1 (0 < X < 10 Rank 1).

In the case of `N[C@@H](Cc1cccc(CSc2nnnn2-c2ccccc2)c1)C(=O)O` [drawing 468], the “Status of Binding” value is reported as 3 (3: Δ > 10%, significantly higher binding affinity than phenylalanine).

`N[C@@H](Cc1ccccc1)C(=O)NC(Cc1cccc(CSc2nnc(-c3ccccc3)o2)c1)C(=O)O` (some centres unmarked) [Compound 48] was tested, and the “Comparison with the Binding” value (10^−4 M) was 0 (X < 0 Rank 0), the “Comparison with the Binding” value (10^−5 M) was 1 (0 < X < 10 Rank 1) and the “Comparison with the Binding” value (10^−6 M) was 1 (0 < X < 10 Rank 1).

For `N[C@@H](Cc1cccc(CSc2ncnc3[nH]ncc23)n1)C(=O)O` [drawing 472], the “Status of Binding” value was 0 (0: Δ ≦ −50%, no binding or very low binding affinity).

In the case of `NC(=O)C(N)Cc1cccc(CSc2nnc(-c3ccccc3)[nH]2)c1` (centres unmarked) [Compound 14], the “Comparison with the Binding” value (10^−4 M) is reported as 0 (X < 0 Rank 0), the “Comparison with the Binding” value (10^−5 M) is reported as 3 (X > 20 Rank 3) and the “Comparison with the Binding” value (10^−6 M) is reported as 2 (10 < X < 20 Rank 2).

In the case of `NC(Cc1ccc(-c2ccc(CSc3nc(-c4ccccc4)c(-c4ccccc4)[nH]3)cc2)cc1)C(=O)O` (centres unmarked) [Compound 89], the “Comparison with the Binding” value (10^−4 M) is reported as 1 (0 < X < 10 Rank 1), the “Comparison with the Binding” value (10^−5 M) is reported as 1 (0 < X < 10 Rank 1) and the “Comparison with the Binding” value (10^−6 M) is reported as 1 (0 < X < 10 Rank 1).

`NC(Cc1cccc(CSc2nc(-c3ccccc3)c(-c3ccccc3)o2)n1)C(=O)O` (centres unmarked) [Compound 119] was tested, and the “Comparison with the Binding” value (10^−4 M) was 2 (10 < X < 20 Rank 2), the “Comparison with the Binding” value (10^−5 M) was 3 (X > 20 Rank 3) and the “Comparison with the Binding” value (10^−6 M) was 1 (0 < X < 10 Rank 1).

`COc1ccc2[nH]c(Sc3cccc(-c4cccc(CC(N)C(=O)O)c4)c3)nc2c1` (centres unmarked) [Compound 76] was tested, and the “Comparison with the Binding” value (10^−4 M) was 0 (X < 0 Rank 0), the “Comparison with the Binding” value (10^−5 M) was 0 (X < 0 Rank 0) and the “Comparison with the Binding” value (10^−6 M) was 1 (0 < X < 10 Rank 1).

`N[C@@H](Cc1ccccc1)C(=O)NC(Cc1cccc(CSc2nc3ccccc3[nH]2)n1)C(=O)O` (some centres unmarked) [Compound 29] was tested, and the “Comparison with the Binding” value (10^−4 M) was 0 (X < 0 Rank 0), the “Comparison with the Binding” value (10^−5 M) was 1 (0 < X < 10 Rank 1) and the “Comparison with the Binding” value (10^−6 M) was 3 (X > 20 Rank 3).

In the case of `Cn1cnnc1Sc1cccc(-c2cccc(CC(N)C(=O)O)c2)c1` (centres unmarked) [Compound 82], the “Comparison with the Binding” value (10^−4 M) is reported as 2 (10 < X < 20 Rank 2), the “Comparison with the Binding” value (10^−5 M) is reported as 3 (X > 20 Rank 3) and the “Comparison with the Binding” value (10^−6 M) is reported as 1 (0 < X < 10 Rank 1).

For `NC(Cc1cccc(CSc2ncc[nH]2)c1)C(=O)O` (centres unmarked) [Compound 5], the “Comparison with the Binding” value (10^−4 M) was 3 (X > 20 Rank 3), the “Comparison with the Binding” value (10^−5 M) was 3 (X > 20 Rank 3) and the “Comparison with the Binding” value (10^−6 M) was 3 (X > 20 Rank 3).
